Results: patent US4845095A, “4-phenylpiperidine compounds and their use” (A/S Ferrosan, priority 1987, dated 1989)

Tested on: acetic acid induced writhing syndrome
Assay: acetic acid induced writhing syndrome in mice
Assay type: in vivo, mice (NMRI)
Settings: for inhibition (ED50 table): s.c. 30 minutes before acetic acid; for ED50: Mus musculus, sc, dose giving 50 per cent protection against writhings, s.c. 30 minutes before acetic acid 0.5 per cent i.p., writhings counted 5-15 minutes after
Method: The pharmaceutical properties of the compounds of the invention can be illustrated by determining their capability to antagonize the acetic acid induced writhing syndrome in mice.
In mice i.p. injection of acetic acid induces a writhing syndrome which is antagonized by analgesics (Siegmund et al., Proc. Soc. exp. Biol. 95, 729-731 (1957); Eckhardt et al., Proc. Soc. exp. Biol. 98, 186-188 (1958).
Test procedure: Acetic acid 0.5 per cent is injected i.p. (0.15 ml/10g body weight) to 6 mice (NMRI, either sex weighing 20-25 g) pretreated with physiological saline (controls) and to 6 mice pretreated with test substance. In the controls acetic acid induces a syndrome characterized by contraction of abdomen, turning of trunk and extension of hind limbs. Saline and test substances are administered s.c. 30 minutes before acetic acid. The number of writhings is counted 5-15 minutes after injection of acetic acid. The activity is expressed as per cent protection=
(Control drug)/Control×100
The effect of active substances is evaluated by a dose response curve, log dose on the abscissa, and per cent protection on the ordinate. The potency is expressed as the dose (ED50) in mg/kg giving 50 per cent protection against writhings. Test results obtained by testing some compounds of the invention will appear from the following table.

Compound	ED50 [mg/kg]	also measured
O=C(O)C(=O)O.c1ccc(OCCCCN2CCC(c3ccccc3)(c3nc(C4CC4)no3)CC2)cc1 [Compound 16, 4-(3-cyclopropyl-1,2,4-oxadiazol-5-yl)-1-(4-phenoxybutyl)-4-phenylpiperidine oxalate]		inhibition (ED50 table) (at 10 (table head mg/kg)): 34%
CN1CCC(c2ccccc2)(c2nc(-c3ccccc3)no2)CC1 [Compound 3, 1-methyl-4-(3-phenyl-1,2,4-oxadiazol-5-yl)-4-phenylpiperidine]		inhibition (ED50 table) (at 3 (table head mg/kg)): 41%
COCc1noc(C2(c3ccccc3)CCN(C)CC2)n1.Cl [Compound 4, 1-methyl-4-(3-methoxymethyl-1,2,4-oxadiazol-5-yl)-4-phenylpiperidine hydrochloride]	3	
CN1CCC(c2ccccc2)(c2nc(C3CC3)no2)CC1.Cl [Compound 2, 1-methyl-4-(3-cyclopropyl-1,2,4-oxadiazol-5-yl)-4-phenylpiperidine hydrochloride]	7.6	
Cc1noc(C2(c3ccccc3)CCN(C)CC2)n1.Cl [Compound 1, 1-Methyl-4-(3-methyl-1,2,4-oxadiazol-5-yl)-4-phenylpiperidine hydrochloride]	5.7	
c1ccc(C2(c3nc(C4CC4)no3)CCNCC2)cc1 [Compound 13, 4-(3-cyclopropyl-1,2,4-oxadiazol-5-yl)-4-phenylpiperidine]	2.9	
CON=CC1(c2ccccc2)CCN(C)CC1.O=C(O)C(=O)O [Compound 10, 4-Methoxyiminomethyl-1-methyl-4-phenyl-piperidine oxalate]	3.2	
CCOC(=O)C1(c2ccccc2)CCN(C)CC1 [Pethidine, reference compound]	9.25	
